Read-outs that look alike come from different tables or passages of the source.
How the values were obtained:
[1] = system: CH1/PA-1 (ovarian teratocarcinoma); design: method as in PMID 36432656; conditions: MTT, 96 h; cited from earlier work
[2] = system: SW480 (colon adenocarcinoma); design: method as in PMID 36432656; conditions: MTT, 96 h; cited from earlier work
[3] = system: A549 (non-small-cell lung carcinoma); design: method as in PMID 36432656; conditions: MTT, 96 h; cited from earlier work
[4] = system: CH1/PA-1 (ovarian teratocarcinoma); assay: MTT cytotoxicity assay, CH1/PA-1 cells (96 h); format: cell-based, human
Procedure: (§1) Cell culture of the cell lines CH1/PA-1, SW480 and A549 was performed as described in reference. 4T1 cells were purchased from American Type Culture Collection, stored in a liquid nitrogen dewar and cultured in Roswell Park Memorial Institute (RPMI)-1640 medium supplemented with 10% foetal bovine serum (FBS) (Thermo Fisher, Waltham, MA, USA).
(§2) Cytotoxicity tests (96 h incubation) in the cell lines CH1/PA-1, SW480 and A549 were conducted as described in reference. Compounds were dissolved in supplemented minimum essential medium (MEM), except for compound C10, which was dissolved in sterile Milli-Q water.
(§3) Based on the required solubility, conjugates C1–C12 were forwarded for cytotoxicity assessments, whereas conjugates S1–S5 could not be tested due to solubility issues (Supporting Information, Table S1). The twelve substances C1–C12 were examined in comparison to the free platinum(IV) complexes and the unloaded dGC polymers with three different chain lengths for their cytotoxic activity in vitro. For this purpose, the colorimetric MTT assay was used in three human cancer cell lines (A549 (non-small-cell lung carcinoma), CH1/PA-1 (ovarian teratocarcinoma) and SW480 (colon adenocarcinoma)), yielding IC50 values in the low micromolar to nanomolar concentration range for all conjugates (Table 3, Supporting Information, Figures S18–S20). The three tested cell lines differ in their platinum sensitivity. SW480 and A549 cells are intrinsically cisplatin- and carboplatin-resistant due to their low expression of CTR1, whereas CH1/PA-1 cells show high chemosensitivity, particularly to platinum drugs.

[5] = system: A549 (non-small-cell lung carcinoma); assay: MTT cytotoxicity assay, A549 cells (96 h); format: cell-based, human
Procedure: as §1, §2, §3

[6] = system: SW480 (colon adenocarcinoma); assay: MTT cytotoxicity assay, SW480 cells (96 h); format: cell-based, human
Procedure: as §1, §2, §3

[7] = Biodistribution study (platinum content of organs by ICP-MS) in non-tumour-bearing mice; format: in vivo, Balb/C mice
Procedure: The Animal Welfare and Ethical Review Body at University College London (UCL) authorised all animal experiments, which were performed under license from the Home Office, UK. […] All substances were applied intravenously (100 µL stock/20 g body weight) via tail vein injection. At the chosen time points, animals were culled with CO2, and the major organs (lung, heart, liver, spleen and kidneys) were collected and frozen in liquid nitrogen. The samples were transferred to the Institute of Inorganic Chemistry, University of Vienna, Austria, where the total platinum content of each sample was determined with an Agilent 7500 ICP-quadrupole MS instrument.
The major organs of liver, lung, heart, kidney and spleen were collected after two specific time points (1 h and 24 h), and the platinum content of each organ was evaluated with ICP-MS analysis (Figure 3).

[8] = MTT, 96 h incubation, read-out: IC50 [µM] CH1/PA-1
[9] = free platinum(IV) complexes: equals measured IC50 of Table 3, read-out: Concentration of Pt(IV) Units at IC50 [µM] CH1/PA-1
[10] = MTT, 96 h incubation, read-out: IC50 [µM] A549
[11] = free platinum(IV) complexes: equals measured IC50 of Table 3, read-out: Concentration of Pt(IV) Units at IC50 [µM] A549
[12] = MTT, 96 h incubation, read-out: IC50 [µM] SW480
[13] = free platinum(IV) complexes: equals measured IC50 of Table 3, read-out: Concentration of Pt(IV) Units at IC50 [µM] SW480

| Compound | IC50 [1] [µM] | IC50 [2] [µM] | IC50 [3] [µM] | IC50 [4, 8] [µM] | IC50 [4, 9] [µM] | IC50 [5, 10] [µM] | IC50 [5, 11] [µM] | IC50 [6, 12] [µM] | IC50 [6, 13] [µM] | organ distribution of platinum (ICP-MS) ([7]; 1 h post i.v. administration, 6: 0.15 mg/100 µL, V3: 0.41 mg/100 µL) | change of platinum amount in organs at 24 h vs 1 h ([7]; 24 h post i.v. injection, 6: 0.15 mg/100 µL, V3: 0.41 mg/100 µL) | increase of platinum amount in the kidneys after 24 h vs 1 h ([7]; i.v., 0.15 mg/100 µL (5.5 mg/kg oxaliplatin equivalent), female Balb/C mice) [fold] | tolerability in mice ([7]; i.v., 6: equivalent to 5.5 mg/kg oxaliplatin, V3: equivalent to 2.75 mg/kg oxaliplatin) |
| --- | --- | --- | --- | --- | --- | --- | --- | --- | --- | --- | --- | --- | --- |
| N.N.O=C([O-])C1(C(=O)[O-])CCC1.[Pt+2] [Carboplatin, carboplatin] | 0.79 ± 0.11 | 42 ± 10 | 38 ± 3 |  |  |  |  |  |  |  |  |  |  |
| N.N.[Cl][Pt][Cl] [Cisplatin, cisplatin] | 0.073 ± 0.001 | 2.3 ± 0.2 | 3.8 ± 1 |  |  |  |  |  |  |  |  |  |  |
| O=C1[O][Pt]2([NH][C@@H]3CCCC[C@H]3[NH]2)[O]C1=O [Oxaliplatin, oxaliplatin] | 0.18 ± 0.01 | 0.29 ± 0.05 | 0.98 ± 0.21 |  |  |  |  |  |  |  |  |  |  |
| (OC-6-44)-Acetaodiammine(3-carboxypropanoato)(cyclobutane-1,1-dicarboxylato)platinum(IV) [compound 4] |  |  |  | 16 ± 6 | 16 ± 6 | > 200 | > 200 | > 200 | > 200 |  |  |  |  |
| (OC-6-44)-Acetato(3-carboxypropanoato)(1R,2R-cyclohexane-1,2-diamine)oxalatoplatinum(IV) [compound 6] |  |  |  | 4.1 ± 0.6 | 4.1 ± 0.6 | 70 ± 29 |  | 22 ± 8 |  | highest concentrations in the excretory organs (kidney and liver) | only slightly raised in all systemic organs | 2.1 | well tolerated without signs of toxicity |
| (OC-6-44)-Acetatodiammine(3-carboxypropanoato)dichloridoplatinum(IV) [compound 2] |  |  |  | 1.2 ± 0.5 | 1.2 ± 0.5 | 99 ± 17 | 99 ± 17 | 47 ± 10 | 47 ± 10 |  |  |  |  |
